Test system: primary mouse hepatocytes
Experiment: Gene expression (Affymetrix Mouse Genome 430 2.0) in primary mouse hepatocytes, true vs false GTX, 24 h and 48 h
Conditions: 48 h; log2, corrected for vehicle control

Nc1ccc([N+](=O)[O-])cc1N [4-NP, 4-Nitro-o-phenylenediamine]
Gene expression AK005731 average: −0.9581
Gene expression AK007854 average: −0.1411
Gene expression AK010447 average: 0.5956
Gene expression AK010738 average: −0.1569
Gene expression AK014608 average: −0.3072
Gene expression AK017734 average: −1.2326
Gene expression AK018383 average: −0.5006
Gene expression AK019979 average: 0.04087
Gene expression AV095209 average: 0.6413
Gene expression AV141095 average: −0.1051
Gene expression AV173869 average: 0.1411
Gene expression AV216768 average: −0.004067
Gene expression AV219418 average: 0.6295
Gene expression AV221299 average: 0.7477
Gene expression AV246296 average: −1.046
Gene expression AV251625 average: −0.1615
Gene expression AV254764 average: −0.4499
Gene expression AV327248 average: −0.01493
Gene expression BB009155 average: −0.6079
Gene expression BB027848 average: −1.954
Gene expression BB043558 average: −0.2736
Gene expression BB046347 average: −0.8045
Gene expression BB140436 average: 2.071
Gene expression BB204486 average: −0.0837
Gene expression BB223872 average: −0.6536
Gene expression BB246912 average: 0.3026
Gene expression BB275142 average: −0.1963
Gene expression BB458460 average: 0.1645
Gene expression BB463610 average: 0.03727
Gene expression BB730977 average: 0.992
Gene expression BB743970 average: −0.1636
Gene expression BB770528 average: −0.9985
Gene expression BB781615 average: −0.7501
Gene expression BC003284 average: −0.5876
Gene expression BC004827 average: −0.2247
Gene expression BC005552 average: 0.4521
Gene expression BC006713 average: −0.7469
Gene expression BC010318 average: 0.1861
Gene expression BC012247 average: −0.6355
Gene expression BC012955 average: 0.1051
Gene expression BC013893 average: −1.496
Gene expression BC017615 average: −1.535
Gene expression BC019379 average: −0.5665
Gene expression BC019882 average: −2.4942
Gene expression BC021352 average: −1.28
Gene expression BC022148 average: −1.1322
Gene expression BC025169 average: 0.3712
Gene expression BC026131 average: 0.2124
Gene expression BC027026 average: 0.05273
Gene expression BC027121 average: −0.2406
Gene expression BC027185 average: −1.382
Gene expression BE956581 average: 0.0346
Gene expression BF719766 average: −0.5024
Gene expression BG065754 average: −0.3381
Gene expression BG066491 average: −0.8219
Gene expression BG076151 average: −0.6573
Gene expression BG076333 average: 0.8731
Gene expression BG797099 average: −0.06697
Gene expression BG967046 average: −0.6324
Gene expression BI651416 average: −0.02873
Gene expression BI966443 average: 0.2259
Gene expression BM198879 average: −0.4213
Gene expression BM200015 average: −0.4429
Gene expression BM230508 average: −0.9731
Gene expression BM936480 average: −0.412
Gene expression BQ174991 average: 0.4017
Gene expression L21027 average: −0.03073
Gene expression NM_007556 average: 0.4274
Gene expression NM_007980 average: −1.581
Gene expression NM_007987 average: −0.8469
Gene expression NM_008522 average: −0.2393
Gene expression NM_008935 average: −1.002
Gene expression NM_009897 average: −0.01903
Gene expression NM_011075 average: −1.008
Gene expression NM_011176 average: −1.635
Gene expression NM_011316 average: −0.9295
Gene expression NM_012006 average: −0.006733
Gene expression NM_013642 average: 1.007
Gene expression NM_013738 average: −1.171
Gene expression NM_013929 average: 0.1753
Gene expression NM_018881 average: −0.2965
Gene expression NM_019738 average: −1.132
Gene expression NM_030697 average: −0.3339
Gene expression NM_053122 average: −0.09647
Gene expression NM_134147 average: 0.01433
Gene expression NM_134188 average: −0.4402
Gene expression X62701 average: 0.7376

Source: US20120122727A1, “IN VITRO METHOD FOR PREDICTING WHETHER A COMPOUND IS GENOTOXIC IN VIVO” (priority 2009, published 2012)
